The values below come from patent publication US10369138B2, “Monobactam organic compounds for the treatment of bacterial infections” (Novartis AG, priority 2014, dated 2019).

For one assay, the system named is E. coli containing KPC-2. The assay is described as follows: MIC by broth microdilution, E. coli containing KPC-2 (Ec KPC2 Iso). Particulars: Escherichia coli, read-out: Ec KPC2 Iso (MIC), E. coli containing KPC-2 (carbapenemase from Klebsiella pneumoniae). It is filed as cell-based. The method in brief:
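Host E. coli BW25113 pspB carrying multicopy pBAD18-kan plasmid with constitutive TEM-promoter KPC-2 expression (periplasmic signal sequence); broth microdilution per CLSI in cation-adjusted Mueller-Hinton broth, inoculum ~5×10^5 CFU/mL, compounds twofold serially diluted from DMSO masters (10% DMSO in dilution series added).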

The subject of the next assay is E. coli strain 25922. The experiment in a line: MIC by broth microdilution, E. coli strain 25922. It is filed as cell-based. The method in brief: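 CLSI broth microdilution in cation-adjusted Mueller-Hinton broth, inoculum about 5×10^5 CFU/mL, 10% DMSO from the diluted series, 20 h at 35-37° C. MIC is the lowest concentration preventing visible growth, read by eye and at 600 nm.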
(In general: Dilution methods test growth across graded concentrations, often in twofold steps.)

The mark [1] stands for this setting: Escherichia coli, 25922, E. coli strain 25922, read-out: Ec 25922 (MIC).

The structures appear in SMILES notation. Converted amounts (≈) assume the structure as drawn. Read-outs that look alike come from different tables or passages of the source.

The MIC is the lowest concentration that inhibits growth of the organism. For the compound `N=C(NCc1cnn(C[C@@H]2[C@H](NC(=O)/C(=N\OC3(C(=O)O)CC3)c3csc(N)n3)C(=O)N2S(=O)(=O)O)n1)NC1CCNCC1` [Example 128, 1-(((Z)-(1-(2-aminothiazol-4-yl)-2-oxo-2-(((3S,4R)-2-oxo-4-((4-((3-(piperidin-4-yl)guanidino)methyl)-2H-1,2,3-triazol-2-yl)methyl)-1-sulfoazetidin-3-yl)amino)ethylidene)amino)oxy)cyclopropanecarboxylic acid], the results for the minimum inhibitory concentration (MIC) with E. coli containing KPC-2 and in the assay with E. coli strain 25922 (setting [1]) were 1 µg/mL (≈ 1.53 µM) and 0.5 µg/mL (≈ 0.764 µM), respectively.

`N=C(NCc1cnn(C[C@@H]2[C@H](NC(=O)/C(=N\OC3(C(=O)O)CC3)c3csc(N)n3)C(=O)N2S(=O)(=O)O)n1)N1CC(CN)C1` [Example 127, 1-(((Z)-(2-(((2R,3S)-2-((4-((3-(aminomethyl)azetidine-1-carboximidamido)methyl)-2H-1,2,3-triazol-2-yl)methyl)-4-oxo-1-sulfoazetidin-3-yl)amino)-1-(2-aminothiazol-4-yl)-2-oxoethylidene)amino)oxy)cyclopropanecarboxylic acid]: the MIC in the assay on E. coli containing KPC-2 and with E. coli strain 25922 (setting [1]) was 0.25 µg/mL (≈ 0.39 µM) each time.

`NCCCNC(=O)NCc1cnn(C[C@@H]2[C@H](NC(=O)/C(=N\OC3(C(=O)O)CC3)c3csc(N)n3)C(=O)N2S(=O)(=O)O)n1` [Example 136, 1-(((Z)-(2-(((2R,3S)-2-((4-((3-(3-aminopropyl)ureido)methyl)-2H-1,2,3-triazol-2-yl)methyl)-4-oxo-1-sulfoazetidin-3-yl)amino)-1-(2-aminothiazol-4-yl)-2-oxoethylidene)amino)oxy)cyclopropanecarboxylic acid]: the minimal inhibitory concentration (MIC) in the assay on E. coli containing KPC-2 and in the assay with E. coli strain 25922 (setting [1]) was 0.5 µg/mL (≈ 0.794 µM) in each case.

Consider `CC(C)(O/N=C(\C(=O)N[C@@H]1C(=O)N(S(=O)(=O)O)[C@@H]1Cn1ncc(CN)n1)c1csc(N)n1)C(=O)O` [Example 52, 2-(((Z)-(2-(((2R,3S)-2-((4-(aminomethyl)-2H-1,2,3-triazol-2-yl)methyl)-4-oxo-1-sulfoazetidin-3-yl)amino)-1-(2-aminothiazol-4-yl)-2-oxoethylidene)amino)oxy)-2-methylpropanoic acid], for which the minimum inhibitory concentration (MIC) in the assay with E. coli containing KPC-2 is 1 µg/mL (≈ 1.88 µM); in the assay on E. coli strain 25922 (setting [1]), 0.5 µg/mL (≈ 0.941 µM).

With `CC(C)(O/N=C(\C(=O)N[C@@H]1C(=O)N(S(=O)(=O)O)[C@@H]1Cn1ncc(COC(N)=O)n1)c1csc(N)n1)C(=O)O` [Example 37, 2-(((Z)-(1-(2-aminothiazol-4-yl)-2-(((2R,3S)-2-((4-((carbamoyloxy)methyl)-2H-1,2,3-triazol-2-yl)methyl)-4-oxo-1-sulfoazetidin-3-yl)amino)-2-oxoethylidene)amino)oxy)-2-methylpropanoic acid], the MIC with E. coli containing KPC-2 and in the assay with E. coli strain 25922 (setting [1]) was 2 µg/mL (≈ 3.47 µM) throughout.

Consider `Nc1nc(/C(=N/OC2(C(=O)O)CC2)C(=O)N[C@@H]2C(=O)N(S(=O)(=O)O)[C@@H]2Cn2ncc(CN[C@@H]3CCNC3)n2)cs1` [Example 89, 1-(((Z)-(1-(2-aminothiazol-4-yl)-2-oxo-2-(((3S,4R)-2-oxo-4-((4-(((R)-pyrrolidin-3-ylamino)methyl)-2H-1,2,3-triazol-2-yl)methyl)-1-sulfoazetidin-3-yl)amino)ethylidene)amino)oxy)cyclopropanecarboxylic acid], for which the minimal inhibitory concentration (MIC) was found to be 1 µg/mL (≈ 1.67 µM) in the assay on E. coli containing KPC-2 and 0.5 µg/mL (≈ 0.835 µM) with E. coli strain 25922 (setting [1]).

`C[C@@H](O/N=C(\C(=O)N[C@@H]1C(=O)N(S(=O)(=O)O)[C@@H]1Cn1cncn1)c1csc(N)n1)C(=O)O` [Example 30, (R)-2-(((Z)-(2-(((2R,3S)-2-((1H-1,2,4-triazol-1-yl)methyl)-4-oxo-1-sulfoazetidin-3-yl)amino)-1-(2-aminothiazol-4-yl)-2-oxoethylidene)amino)oxy)propanoic acid]: the minimum inhibitory concentration (MIC) in the assay on E. coli containing KPC-2 and in the assay on E. coli strain 25922 (setting [1]) was 1 µg/mL (≈ 2.05 µM) throughout.

As to `CC(C)(O/N=C(\C(=O)N[C@@H]1C(=O)N(S(=O)(=O)O)[C@@H]1Cn1cc[nH]c1=O)c1csc(N)n1)C(=O)O` [Example 87, 2-(((Z)-(1-(2-aminothiazol-4-yl)-2-oxo-2-(((3S,4R)-2-oxo-4-((2-oxo-2,3-dihydro-1H-imidazol-1-yl)methyl)-1-sulfoazetidin-3-yl)amino)ethylidene)amino)oxy)-2-methylpropanoic acid], the minimal inhibitory concentration (MIC) in the assay with E. coli containing KPC-2 was 0.5 µg/mL (≈ 0.966 µM); with E. coli strain 25922 (setting [1]) it was 1 µg/mL (≈ 1.93 µM).

For `N=C(N)NCCCNCc1cnn(C[C@@H]2[C@H](NC(=O)/C(=N\OC3(C(=O)O)CC3)c3csc(N)n3)C(=O)N2S(=O)(=O)O)n1` [Example 114, 1-(((Z)-(1-(2-aminothiazol-4-yl)-2-(((2R,3S)-2-((4-(((3-guanidinopropyl)amino)methyl)-2H-1,2,3-triazol-2-yl)methyl)-4-oxo-1-sulfoazetidin-3-yl)amino)-2-oxoethylidene)amino)oxy)cyclopropanecarboxylic acid], the figures for the minimum inhibitory concentration (MIC) in the assay with E. coli containing KPC-2 and in the assay on E. coli strain 25922 (setting [1]) were not above 0.06 µg/mL and 0.25 µg/mL (≈ 0.398 µM), respectively.

As to `CC(C)(O/N=C(\C(=O)N[C@@H]1C(=O)N(S(=O)(=O)O)[C@@H]1Cn1ncc(CNS(N)(=O)=O)n1)c1csc(N)n1)C(=O)O` [Example 65, 2-(((Z)-(1-(2-aminothiazol-4-yl)-2-oxo-2-(((3S,4R)-2-oxo-4-((4-((sulfamoylamino)methyl)-2H-1,2,3-triazol-2-yl)methyl)-1-sulfoazetidin-3-yl)amino)ethylidene)amino)oxy)-2-methylpropanoic acid], the MIC in the assay with E. coli containing KPC-2 and in the assay on E. coli strain 25922 (setting [1]) was 64 µg/mL (≈ 105 µM) each time.

Regarding `N=C(NC1[C@H]2CNC[C@@H]12)c1ccc(OC[C@H](O/N=C(\C(=O)N[C@@H]2C(=O)N(S(=O)(=O)O)[C@@H]2Cn2cncn2)c2csc(N)n2)C(=O)O)cc1` (stereo partly drawn) [Example 81, (S)-2-(((Z)-(2-(((2R,3S)-2-((1H-1,2,4-triazol-1-yl)methyl)-4-oxo-1-sulfoazetidin-3-yl)amino)-1-(2-aminothiazol-4-yl)-2-oxoethylidene)amino)oxy)-3-(4-(N-((1R,5S,6s)-3-azabicyclo[3.1.0]hexan-6-yl)carbamimidoyl)phenoxy)propanoic acid], the MIC in the assay with E. coli containing KPC-2 stood at 0.125 µg/mL (≈ 0.178 µM); in the assay with E. coli strain 25922 (Escherichia coli, 25922, read-out: Ec 25922 (MIC)) it was 0.125 µg/mL (≈ 0.178 µM).

`N=C(NCCN)c1ccc(OC[C@H](O/N=C(\C(=O)N[C@@H]2C(=O)N(S(=O)(=O)O)[C@@H]2Cn2cncn2)c2csc(N)n2)C(=O)O)cc1` [Example 67, (S)-2-(((Z)-(2-(((2R,3S)-2-((1H-1,2,4-triazol-1-yl)methyl)-4-oxo-1-sulfoazetidin-3-yl)amino)-1-(2-aminothiazol-4-yl)-2-oxoethylidene)amino)oxy)-3-(4-(N-(2-aminoethyl)carbamimidoyl)phenoxy)propanoic acid]: the MIC in the assay with E. coli containing KPC-2 was determined as 0.125 µg/mL (≈ 0.188 µM); in the assay with E. coli strain 25922 (setting [1]), 0.25 µg/mL (≈ 0.376 µM).

With `Cn1cnn(C[C@@H]2[C@H](NC(=O)/C(=N\OC(C)(C)C(=O)O)c3csc(N)n3)C(=O)N2S(=O)(=O)O)c1=O` [Example 98, 2-(((Z)-(1-(2-aminothiazol-4-yl)-2-(((2R,3S)-2-((4-methyl-5-oxo-4,5-dihydro-1H-1,2,4-triazol-1-yl)methyl)-4-oxo-1-sulfoazetidin-3-yl)amino)-2-oxoethylidene)amino)oxy)-2-methylpropanoic acid], the MIC came to 0.5 µg/mL (≈ 0.939 µM) in the assay with E. coli containing KPC-2 and 2 µg/mL (≈ 3.76 µM) in the assay with E. coli strain 25922 (setting [1]).

As to `CC(C)(O/N=C(\C(=O)N[C@@H]1C(=O)N(S(=O)(=O)O)[C@@H]1CN1CC[C@@H](NC(=N)N)C1=O)c1csc(N)n1)C(=O)O` [Example 88, 2-(((Z)-(1-(2-aminothiazol-4-yl)-2-(((2R,3S)-2-(((R)-3-guanidino-2-oxopyrrolidin-1-yl)methyl)-4-oxo-1-sulfoazetidin-3-yl)amino)-2-oxoethylidene)amino)oxy)-2-methylpropanoic acid], the MIC in the assay on E. coli containing KPC-2 came to 4 µg/mL (≈ 6.95 µM); in the assay on E. coli strain 25922 (setting [1]), 2 µg/mL (≈ 3.47 µM).
